Source: ChEMBL document CHEMBL1145690, “Antimalarial activity of tropical Meliaceae extracts and gedunin derivatives” (J Nat Prod, 1997)
Values after ≈ are worked out from the molar mass of the structure shown. Active and inactive are the calls of the source. The calls are words filed in the database; no cut-off is given here.

Assays:
[1] = system: KB; assay: Cytotoxicity against human KB cells; format: functional, cell-based
[2] = system: Plasmodium falciparum; assay: Antimalarial activity against Plasmodium falciparum W2 by [3H]hypoxanthine uptake; format: functional, organism-based
[3] = system: KB; assay: Cytotoxicity against human KB cells assessed as viability at 20000 ng/ml; format: functional; details: read-out: Activity
[4] = system: Plasmodium falciparum; assay: Antimalarial activity against Plasmodium falciparum D6 by [3H]hypoxanthine uptake relative to gedunin; format: functional
[5] = system: Plasmodium falciparum; assay: Antimalarial activity against Plasmodium falciparum D6 by [3H]hypoxanthine uptake; format: functional, organism-based
[6] = system: Plasmodium falciparum; assay: Antimalarial activity against Plasmodium falciparum; format: functional, organism-based
[7] = system: Plasmodium falciparum; assay: Antimalarial activity against Plasmodium falciparum FCR3TC by radioisotope micro dilution assay; format: functional, organism-based
[8] = system: Plasmodium falciparum; assay: Antimalarial activity against Plasmodium falciparum at 50000 ng/ml; format: functional, organism-based

Row | IC50 [5] [mg/L] | IC50 [6] [mg/L] | Compound | IC50 [1] [mg/L] | IC50 [2] [mg/L] | viability at 20 µg/mL [3] [%] | Activity [4] [%] | IC50 [7] [mg/L] | Activity [8]
1 | 0.832 (≈ 1.59 µM) | – | CC(=O)O[C@@H]1C[C@H]2C(C)(C)C(=O)C=C[C@]2(C)[C@H]2CC[C@@]3(C)[C@H](c4coc(C(C)=O)c4)OC(=O)[C@H]4O[C@]43[C@@]21C | 10.9 (≈ 20.8 µM) | 0.156 (≈ 0.297 µM) | 38 | 4.69 | – | –
2 | 0.133 (≈ 0.254 µM) | – | CC(=O)O[C@@H]1C[C@H]2C(C)(C)C(=O)C=C[C@]2(C)[C@H]2CC[C@@]3(C)[C@H](c4ccoc4C(C)=O)OC(=O)[C@H]4O[C@]43[C@@]21C | 9.4 (≈ 17.9 µM) | 0.039 (≈ 0.0743 µM) | 31 | 29.38 | – | –
3 | 2.58 (≈ 5.17 µM) | – | CC(=O)O[C@@H]1C[C@H]2C(C)(C)C(=O)[C@@H]3O[C@@H]3[C@]2(C)[C@H]2CC[C@@]3(C)[C@H](c4ccoc4)OC(=O)[C@H]4O[C@]43[C@@]21C | – | 0.98 (≈ 1.97 µM) | 81 | 0.93 | – | –
4 | – | – | CCN(CC)CCCC(C)Nc1ccnc2cc(Cl)ccc12 (stereo unspecified) [CHLOROQUINE] | 17.4 (≈ 54.4 µM) | – | – | 3000 | – | –
5 | > 10 | 2.63 (≈ 5.43 µM) | CC(=O)O[C@@H]1C[C@H]2C(C)(C)C(=O)CC[C@]2(C)[C@H]2CC[C@@]3(C)[C@H](c4ccoc4)OC(=O)[C@H]4O[C@]43[C@@]21C [DIHYDROGEDUNIN] | – | 0.84 (≈ 1.73 µM) | 71 | <0.39 | – | –
6 | 10 (≈ 20.5 µM) | – | CC(=O)O[C@@H]1C[C@H]2C(C)(C)C(=O)CC[C@]2(C)[C@H]2CC[C@@]3(C)[C@H](C4CCOC4)OC(=O)[C@H]4O[C@]43[C@@]21C (stereo partly specified) [HEXAHYDROGEDUNIN] | – | 2.13 (≈ 4.36 µM) | 99 | 0.39 | – | –
7 | – | – | CC1(C)O[C@H]2CC(=O)OC[C@]23[C@H]2CC[C@@]4(C)[C@H](c5ccoc5)OC(=O)[C@H]5O[C@]54[C@]2(C)C(=O)C[C@@H]13 [LIMONIN] | – | – | – | – | > 100 | inactive
8 | – | 1.74 (≈ 3.73 µM) | COC(=O)C[C@H]1[C@]2(C)C3=C(C)[C@H](c4ccoc4)C[C@H]3O[C@@H]2[C@@H]2OC(=O)[C@]3(C)C=CC(=O)[C@@]1(C)[C@@H]23 [NIMBOLIDE] | – | – | – | – | – | –
9 | – | – | C=C[C@H]1CN2CC[C@H]1C[C@H]2[C@H](O)c1ccnc2ccc(OC)cc12 [QUININE] | > 20 | 0.0349 (≈ 0.108 µM) | – | 264 | – | –
10 | 2.5 (≈ 5.14 µM) | – | CC(=O)O[C@@H]1C[C@H]2C(C)(C)C(=O)C=C[C@]2(C)[C@H]2CC[C@@]3(C)[C@H](C4CCOC4)OC(=O)[C@H]4O[C@]43[C@@]21C (stereo partly specified) [TETRAHYDROGEDUNIN] | – | 0.9 (≈ 1.85 µM) | 81 | 1.56 | – | –
11 | 4.21 (≈ 8.65 µM) | – | CC(=O)O[C@@H]1C[C@H]2C(C)(C)[C@@H](O)CC[C@]2(C)[C@H]2CC[C@@]3(C)[C@H](c4ccoc4)OC(=O)[C@H]4O[C@]43[C@@]21C [beta-DIHYDROGEDUNOL] | – | 2.44 (≈ 5.01 µM) | 69 | 0.93 | – | –

Row | Compound | IC50 [5] [mg/L] | IC50 [6] [mg/L] | IC50 [1] [mg/L] | IC50 [2] [mg/L] | viability at 20 µg/mL [3] [%] | Activity [4] [%] | IC50 [7] [mg/L] | Activity [8]
12 | C[C@@H]1CC[C@H]2[C@@H](C)C(=O)O[C@@H]3O[C@@]4(C)CC[C@@H]1[C@]32OO4 [ARTEMISININ] | 0.0018 (≈ 0.00638 µM) | – | > 20 | 0.0005 (≈ 0.00177 µM) | – | 2170 | – | –
13 | CC1(C)C(=O)C=C[C@]2(C)[C@H]3CC[C@@]4(C)[C@H](c5ccoc5)OC(=O)[C@H]5O[C@]54[C@]3(C)C(=O)C[C@@H]12 [DEACETOXY-7-OXOGEDUNIN] | > 10 | – | – | > 10 | 99 | <0.39 | – | –
14 | CC1(C)C(=O)C=C[C@]2(C)[C@H]3CC[C@@]4(C)[C@H](c5ccoc5)OC(=O)[C@H]5O[C@]54[C@]3(C)[C@H](O)C[C@@H]12 [DEACETYLGEDUNIN] | 2.61 (≈ 5.92 µM) | – | – | 1.28 (≈ 2.91 µM) | 39 | 1.5 | – | –
15 | CC(=O)O[C@@H]1C[C@H]2C(C)(C)C(=O)C=C[C@]2(C)[C@H]2CC[C@@]3(C)[C@H](c4ccoc4)OC(=O)[C@H]4O[C@]43[C@@]21C [GEDUNIN] | 0.039 (≈ 0.0808 µM) | 0.72 (≈ 1.49 µM) | 2.3 (≈ 4.77 µM) | 0.02 (≈ 0.0414 µM) | 32 | – | 0.8 (≈ 1.66 µM) | –
16 | CCOC(=O)[C@H]1[C@@H](OC(C)=O)[C@@H]2[C@@]3(C)C=CC(=O)[C@@](C)(C(=O)OC)C3=CC(=O)[C@@]2(C)[C@@]23O[C@@H]2C[C@@H](c2ccoc2)[C@]13C [HIRITIN] | 0.173 (≈ 0.298 µM) | – | 0.5 (≈ 0.861 µM) | 0.096 (≈ 0.165 µM) | 4.9 | 22.6 | – | –
17 | OC(c1cc(C(F)(F)F)nc2c(C(F)(F)F)cccc12)C1CCCCN1 (stereo unspecified) [MEFLOQUINE] | 0.0075 (≈ 0.0198 µM) | – | 3.5 (≈ 9.25 µM) | 0.0014 (≈ 0.0037 µM) | – | 521 | – | –
